# US20120252721A1 (priority 2011, published 2012)
# Test system: HCV genotype 3a NS5A within the 1b-replicon
# Test: Luciferase replicon assay, NS5A-intergenotypic stable cell line genotype 3a
# Assay type: cell-based
# Details: Hepatitis C virus, read-out: EC50 3a
# Source text: The nucleotide sequences of the NS5A region of genotype 2a (GenBank Accession # AB047639), genotype 3a (GenBank Accession #D17763), and genotype 4a (GenBank Accession# DQ418788) were synthesized by an outside vendor. The NS5A region of each of these genotypes included the first 11 amino acids of the protease recognition sequence of genotype 1b, as well as the last 10 amino acids of genotype 1b. The NS5A gene cassettes were excised with site specific restriction endonucleases and ligated into a ZS11-luciferase genotype 1b backbone (backbone contains the genotype 1b NS3 protease, NS4a, NS4b, and NS5b coding regions) with similarly cut restriction enzyme sites. Thus, the newly constructed plasmid contains a genotype 2a-, 3a- or 4a-specific NS5A gene within the 1b-replicon.
# These new intergenotypic plasmids were used to establish stable cell lines. RNA was generated from the NS5A intergenotypic plasmids and used in conjunction with a lipofectin reagent to transfect a cured Huh7 cell line. Transfected cells were selected for with G418. After selection has occurred the stable cell lines were propagated, tested for luciferase activity, and RT-PCR with genotype specific primers (either 1a, 2a, 3a, or 4a). Stable cell lines containing the intergenotypic replicon were then fully sequenced and analyzed for proper expression of NS3, NS5A and NS5B proteins.
# Drug titration analysis was performed using the luciferase replicon assay described herein.
# The HCV luciferase replicon assay measures the ability of a test compound to inhibit HCV replication in cell culture after 3 days of treatment in a human hepatoma cell line (Huh-7) bearing an HCV replicon containing a luciferase-neomycin phosphotransferase fusion gene. The inhibition of HCV replication was measured by quantification of luciferase protein expression. Briefly, Huh-7 cells containing either the HCV genotype 1a H77 strain or genotype 1b Con1 strain subgenomic luciferase replicon (H1a-luc or Zluc, respectively) were grown in DMEM containing glucose, L-glutamine and sodium pyruvate, 10% fetal bovine serum (FBS), 100 IU/mL penicillin, 100 μg/mL streptomycin, 2 mM GlutaMAX, non-essential amino acids and 0.25 (H1a-luc) or 0.5 (Zluc) mg/mL G418. GlutaMAX was obtained from Invitrogen, Corp.; all other media reagents were obtained from Mediatech, Inc. For dose-response testing, the cells were seeded in 96-well plates at 1×10^4 (H1a-luc) or 7.5×10^3 (Zluc) cells/well in a volume of 50 μL, and incubated at 37° C./5% CO2. Three hours after plating, 50 μL of ten 5-fold serial dilutions of compound were added, and cell cultures were incubated at 37° C./5% CO2 for 72 hours. In all cases, Huh-7 cells lacking the HCV replicon served as negative control. To assess luciferase expression, the media/compound was removed from the plates and ONE-glo Luciferase assay reagent (Promega) was added to each well. The assay plates were shaken for 3 minutes at room temperature and luciferase activity for each well was measured with a 1 sec read time on the Victor^3V multilabel counter using a 700 nm cut-off filter (Perkin Elmer). EC50 values were calculated from dose response curves from the resulting best-fit equations determined by Microsoft Excel and XLfit 4.1 software.
compound,measurement,value
"COC(=O)N[C@H](C(=O)N1CCC[C@H]1c1ncc(-c2ccc(-c3csc4c(-c5cnc([C@@H]6CCCN6C(=O)[C@@H](NC(=O)OC)C(C)C)[nH]5)csc34)cc2)[nH]1)C(C)C [Compound A15, [(S)-1-((S)-2-{4-[4-(6-{2-[(S)-1-((S)-2-methoxycarbonylamino-3-methyl-butyryl)-pyrrolidin-2-yl]-3H-imidazol-4-yl}-thieno[3,2-b]thiophen-3-yl)-phenyl]-1H-imidazol-2-yl}-pyrrolidine-1-carbonyl)-2-methyl-propyl]-carbamic acid methyl ester]",EC50,0.1 to 1 nM
